Measurements as given in patent US10111437B2, “Substituted guanidines as fungicides” (Nippon Soda Co., Ltd., priority 2015, dated 2018).

What was measured:
[1] = system: Apple scab fungus (Venturia inaequalis); assay: Apple scab control test (foliar spray on apple seedlings); assay type: in vivo; settings: 125 ppm active ingredient, sprayed on apple seedlings (variety Orin) before inoculation, vs untreated
Description: The dilution was sprayed to apple seedlings (variety “Orin”, 3 to 4 leaf stage) grown in clay pots. […] The control value was calculated by the following equation. [formula]

[2] = system: cucumber gray mold fungus (Botrytis cinerea); assay: Cucumber gray mold control test (foliar spray on cucumber seedlings); settings: in Cucumis sativus, 96 h, read-out: control value
[3] = system: Tomato late blight fungus (Phytophthora infestans); assay: whole plant or invertebrate; assay type: in vivo; settings: foliar, 96 h, read-out: control value

Structure (SMILES)	pest or weed control at 125 ppm [1]	pest or weed control at 125 ppm [2]	pest or weed control at 125 ppm [3]
N=C(NCCCc1ccc(C(=N)N)cc1)NCCCc1ccc(C(=N)N)cc1 [compound 65, 4-[3-[[N-[3-(4-carbamimidoylphenyl)propyl]carbamimidoyl]amino]propyl]benzamidine]	≥ 75%	≥ 75%	
N=C(NCCCCCCCCNC1=NCCN1)NCCOc1ccc(C2=NCCCN2)cc1 [compound 294]	≥ 75%		
N=c1n(CCCOc2ccc(C3=NCCCN3)cc2)ccn1CCCOc1ccc(C2=NCCCN2)cc1 [compound 76]	≥ 75%	≥ 75%	≥ 75%
N=C(N)c1ccc(OCCCCCn2ccn(CCOc3ccc(C(=N)N)cc3)c2=N)cc1 [compound 93]	≥ 75%	≥ 75%	≥ 75%
N=C(N)c1ccc(OCCCN2CCN(CCCOc3ccc(C(=N)N)cc3)C2=N)cc1 [compound 2, 4-[3-[3-[3-(4-carbamimidoylphenoxy)propyl]-2-imino-imidazolidin-1-yl]propoxy]benzamidine]	≥ 75%	≥ 75%	≥ 75%
N=C(N)c1ccc(OCCCCn2c(=N)n(CCCCOc3ccc(C(=N)N)cc3)c3ccccc32)cc1 [compound 27, 4-[4-[3-[4-(4-carbamimidoylphenoxy)butyl]-2-imino-benzimidazol-1-yl]butoxy]benzamidine]	≥ 75%	≥ 75%	≥ 75%
N=C(N)c1csc(CCCCCn2ccn(CCCCCc3nc(C(=N)N)cs3)c2=N)n1 [compound 95]	≥ 75%	≥ 75%	
N=C(N)NCCCCCCCNC(=N)NCCCCOc1ccc(C(=N)N)cc1 [compound 30, 4-[4-[[N-(7-guanidinoheptyl)carbamimidoyl]amino]butoxy]benzamidine]	≥ 75%	≥ 75%	≥ 75%
N=C(NCCCOc1ccc(C(=N)N)cn1)NCCCOc1ccc(C(=N)N)cn1 [compound 17, 6,6′-((((iminomethylene)bis(azanediyl))bis (propane-3,1-diyl))bis(oxy))dinicotinimidamide]	≥ 75%	≥ 75%	
N=C(N)NCCCCCCCNC(=N)NCCCOCc1ccc(C2=NCCCN2)cc1 [compound 224]	≥ 75%	≥ 75%	≥ 75%
N=C(NCCCOc1ccc(C(=N)N)c(F)c1)NCCCOc1ccc(C(=N)N)c(F)c1 [compound 82]	≥ 75%	≥ 75%	≥ 75%
N=C(N)NCCCCCCCn1ccn(CCCCOc2ccc(C3=NCCCN3)cc2)c1=N [compound 208]	≥ 75%	≥ 75%	≥ 75%
N=C(N)NCCCCCCCNC(=N)NCCCCOc1ccc(C2=NCCCN2)cc1 [compound 202]	≥ 75%	≥ 75%	≥ 75%
N=C(N)c1ccc(OCCCCn2ccn(CCCCOc3ccc(C(=N)N)cn3)c2=NC(=O)C(F)(F)F)nc1 [compound 46, N-(1,3-bis(4-((5-carbamimidoylpyridin-2-yl)oxy)butyl)-1,3-dihydro-2H-imidazol-2-ylidene)-2,2,2-trifluoroacetamide]		≥ 75%	
N=C(NCC#Cc1ccc(C(=N)N)cc1)NCC#Cc1ccc(C(=N)N)cc1 [compound 155]	≥ 75%	≥ 75%	≥ 75%
CNCCNC(=N)c1ccc(OCCCn2ccn(CCCOc3ccc(C(=N)NCCNC)cc3)c2=N)cc1 [compound 97]	≥ 75%		
C/N=C(/NCCCOc1ccc(C(=N)N)cc1)N(C)CCCOc1ccc(C(=N)N)cc1 [compound 138]	≥ 75%	≥ 75%	≥ 75%
N=C(N)c1ccc(SCCCn2ccn(CCCSc3ccc(C(=N)N)cc3)c2=N)cc1 [compound 181]	≥ 75%	≥ 75%	≥ 75%
N=C(N)c1ccc(COCCCn2ccn(CCCOCc3ccc(C(=N)N)cc3)c2=N)cc1 [compound 161]	≥ 75%	≥ 75%	
N=C(N)c1ccc(OCCCCN2CCN(CCCCOc3ccc(C(=N)N)cc3)C2=N[N+](=O)[O-])cc1 [compound 38, 4-[4-[3-[4-(4-carbamimidoylphenoxy)butyl]-2-nitroimino-imidazolidin-1-yl]butoxy]benzamidine]	≥ 75%	≥ 75%	
CNC(=N)c1ccc(OCCCCn2ccn(CCCCOc3ccc(C(=N)NC)cc3)c2=N)cc1 [compound 118]	≥ 75%	≥ 75%	≥ 75%
N=C(NCCCOc1ccc(C2=NCCN2)cc1)NCCCOc1ccc(C2=NCCN2)cc1 [compound 78]	≥ 75%	≥ 75%	

Structure (SMILES)	pest or weed control at 125 ppm [1]	pest or weed control at 125 ppm [2]	pest or weed control at 125 ppm [3]
N=C(N)c1ccc(COCCCn2ccn(CCCOc3ccc(C(=N)N)cc3)c2=N)cc1 [compound 159]	≥ 75%	≥ 75%	≥ 75%
N=C(N)c1ccc(OCCCCn2ccn(CCCCOc3ccc(C4=NCCCN4)cc3)c2=N)cc1 [compound 214]	≥ 75%	≥ 75%	≥ 75%
N=C(N)NCCCCCNC(=N)NCCCOc1ccc(C(=N)N)cc1 [compound 132]	≥ 75%	≥ 75%	≥ 75%
N=C(NCCCOCc1ccc(C(=N)N)cc1)NCCCOCc1ccc(C(=N)N)cc1 [compound 175]	≥ 75%	≥ 75%	
N=C(N)NCCCCCCCNC(=N)NCCOc1ccc2cc(C3=NCCCN3)ccc2c1 [compound 290]	≥ 75%		≥ 75%
N=C(N)NCCCCCCCCNC(=N)NCCCc1ccc(C2=NCCCN2)cc1 [compound 271]	≥ 75%		
CNCCNC(=N)NCCCCCCCCNC(=N)NCCCCOc1ccc(C(=N)N)cc1 [compound 147]	≥ 75%	≥ 75%	≥ 75%
N=C(N)c1ccc(OCCCn2ccn(CCCOc3ccc(C(=N)N)cc3Br)c2=N)c(Br)c1 [compound 54, 3-bromo-4-[3-[3-[3-(2-bromo-4-carbamimidoyl-phenoxy)propyl]-2-imino-imidazol-1-yl]propoxy]benzamidine]		≥ 75%	≥ 75%
N=C(N)NCCCCCCCCNC(=N)NCCOc1ccc(C(=N)N)cc1 [compound 232]	≥ 75%		≥ 75%
N=C(NCCCCCc1nc(C(=N)N)cs1)NCCCOc1ccc(C(=N)N)cc1 [compound 91]	≥ 75%	≥ 75%	≥ 75%
N=C(N)NCCCCCCCNC(=N)NCCCOc1ccc(C(=N)N)nn1 [compound 44, 6-(3-(3-(7-guanidinoheptyl)guanidino)propoxy) pyridazine-3-carboxamidine]	≥ 75%	≥ 75%	≥ 75%
CNCCNC(=N)c1ccc(OCCCn2ccn(CCCOc3ccc(C(=N)N)cc3)c2=N)cc1 [compound 101]	≥ 75%	≥ 75%	≥ 75%
N=C(N)c1ccc(OCCCNC(=Nc2ccccc2)NCCCOc2ccc(C(=N)N)cc2)cc1 [compound 63, 4-[3-[[N-[3-(4-carbamimidoylphenoxy)propyl]-N′-phenyl-carbamimidoyl]amino]propoxy]benzamidine]	≥ 75%	≥ 75%	
N=C(NCCOCc1ccc(C(=N)N)cc1)NCCOCc1ccc(C(=N)N)cc1 [compound 226]	≥ 75%	≥ 75%	
N=C(N)NCCCCCCCCNC(=N)NCCCSc1ccc(C(=N)N)cc1 [compound 198]	≥ 75%	≥ 75%	≥ 75%
N=C(N)NCCCCCCCNC(=N)NCCCCCCCNC(=N)N [compound 12, 1,3-bis(7-guanidinoheptyl)guanidine]	≥ 75%	≥ 75%	
N=c1[nH]ccn1CCCCCCCCn1ccn(CCCOc2ccc(C3=NCCCN3)cc2)c1=N [compound 283]	≥ 75%	≥ 75%	
N=C(NCCCCCCCCNC1=NCCN1)NCCCOc1ccc(C2=NCCCN2)cc1 [compound 296]	≥ 75%	≥ 75%	
N=C(N)c1ccc(OCCCn2ccn(CCCOc3ccc(C(=N)N)cc3)c2=N)cc1 [compound 20, 4-[3-[3-[3-(4-carbamimidoylphenoxy)propyl]-2-imino-imidazol-1-yl]propoxy]benzamidine]		≥ 75%	
CC(C)(C)OC(=O)NC(=N)c1ccc(OCCn2ccn(CCOc3ccc(C(=N)NC(=O)OC(C)(C)C)cc3)c2=NC(=O)C(F)(F)F)cc1 [compound 73]	≥ 75%		
N=C(N)NCCCCCCN1CCN(CCCCCCNC(=N)N)C1=N [compound 4, 1-[6-[3-(6-guanidinohexyl)-2-imino-imidazolidin-1-yl]hexyl]guanidine]	≥ 75%	≥ 75%	
N=C(NCCCCCCCOc1ccc(C(=N)N)cc1)NCCCCCCCOc1ccc(C(=N)N)cc1 [compound 14, 4-[7-[[N-[7-(4-carbamimidoylphenoxy)heptyl]carbamimidoyl]amino]heptoxy]benzamidine]		≥ 75%	
